From patent US9988371B2, “Benzimidazole analogues and related methods” (The Arizona Board of Regents, on Behalf of the University …, priority 2014, dated 2018)
“Also recorded” adds a separate entry of the source.

Tested on: RET (RET/C634Y, RET/M918T, RET/C634W, RET/PTC1, RET/PTC3, KIF5B-RET, RET/C634R-V804M)
Test: RET auto-phosphorylation immunoblot, all cell lines and mutations tested
Assay type: cell-based
Experimental: FIG. 1: Photographs of blots showing inhibition of phosphorylation of RET/C634Y and RET/M918T in intact cells by Pz-1 or vehicle (NT: not treated). Serum-starved NIH3T3 cells expressing RET/C634Y or RET/M918T mutants were treated for 2 hr with indicated concentrations of Pz-1. 50 μg of total cell lysates were subjected to immunoblotting with anti-phospho-Y1062 (αp1062) or anti-phospho-Y905 (αp905) RET antibodies. The blots were normalized using anti-RET (αRET) antibodies.
FIG. 2: Photographs of blots showing inhibition of phosphorylation of gate-keeper RET point mutant and rearranged RET oncoproteins by Pz-1 or vehicle (NT: not treated). HEK293 cells were transiently transfected with vectors expressing RET/C634R-V804M mutant (V804 is the gate-keeper RET residue), or RET/PTC1 (CCDC6-RET, found in papillary thyroid carcinoma and lung adenocarcinoma), RET/PTC3 (NCOA4-RET, found in papillary thyroid carcinoma and lung adenocarcinoma), or KIF5B-RET (found in lung adenocarcinoma). After 36 hr from transfection, cells were serum-starved for 12 hr and then treated for 2 hr with indicated concentrations of Pz-1. 50 μg of total cell lysates were subjected to immunoblotting with anti-phospho-Y1062 (αp1062) and anti-phospho-Y905 (αp905) RET antibodies. The blots were normalized using anti-RET (αRET) antibody.
FIG. 3: Photographs of blots showing inhibition of RET protein endogenously expressed in TT cells (human MTC cell line expressing RET/C634W) by indicated concentrations of Pz-1 or vehicle (NT: not treated) and reduced effects in thyroid non-transformed Nthy-ori-3-1 cells. […]
The inhibition of RET auto-phosphorylation by Pz-1 was measured in several different cell lines including NIH3T3 fibroblasts expressing RET/C634Y or RET/M918T, TT expressing RET/C634W (MTC), Nthy-ory-3-1 (thyroid, non-transformed with RET; negative control), HEK293/RET/PTC1 (CCDC6-RET that can be found in PTC & lung cancer), HEK293/RET-KIF5B (that can be found in lung cancer), HEK293/RET/PTC3 (NCOA4-RET, that can be found in PTC & lung cancer), and HEK293 transfected with RET/C634R-V804M (FIGS. 1-3). […]

## Cn1cc(-c2ccc3c(c2)ncn3-c2ccc(CC(=O)Nc3cc(C(C)(C)C)on3)cc2)cn1 [Pz-1, N-(5-(tert-butyl)isoxazol-3-yl)-2-(4-(5-(1-methyl-1H-pyrazol-4-yl)-1H-benzo[d]imidazol-1-yl)phenyl)acetamide]
1 nM, 2 hrs, all cell-lines
  inhibition of pRET: strong inhibition; also recorded: strongly inhibited
FIGS. 1-3
  concentration at which potent on RET and all tested RET mutants including RET/V804M: less than 1 nM
Nanomolar concentrations, all cell lines and mutations tested
  inhibition of RET auto-phosphorylation: 90%
